This is an account of results in patent US12331121B2, “Efflux pump-cancer antigen multi-specific antibodies and compositions, reagents, kits and methods related thereto” (William Robert Arathoon Living Trust Dated August 29, 2016, priority 2019, dated 2025).

For one assay, the system named is N6ADR cells. Nature of the assay: Paclitaxel sensitization of N6ADR cells in vitro. Format: cell-based, human. The following applies: FIG. 5, 6; compared to chemo only. As to the method: HEK 293T, MCF-7, N6ADR and SKNF7 cell lines expressing Pgp were obtained from the American Type Culture Collection. N6/ADR cells is also referred to as NALM6/ADR cells. All cell lines and lines derived from them were maintained in RPMI 1640 or DMEM supplemented with up to 10% fetal bovine serum (Sigma), nonessential amino acids, and 2 mmol/L L-glutamine at 37° C. and 5% CO2 in a humidified incubator (unless otherwise indicated). Cells were used as supplied or were modified to overexpress (Ox) Pgp or were subject to having Pgp expression knocked down (KD) with lentiviral-mediated short hairpin RNA or knock out (KO) of the functional CD47 gene by CRISPR/Cas-mediated knock out technology essentially as described (Cong, L. et al. (2013) Science 339, 819-823). For vincristine and paclitaxel IC50 determination, cells were plated in normal growth medium and allowed to adhere overnight. Paclitaxel or vincristine (Sigma) were added in a dilution series and any modulators were added within ranges of 0 to 500 μM/L. Cell viability was measured 72 h later using the Celltiter-Glo Luminescent Cell Viability Assay (Promega).
FIG. 5 and FIG. 6A-6C illustrate the enhanced killing of cells, by the antineoplastic agent paclitaxel, when cells are bound by the 15D3.aCD47:MRK16 bispecific antibody (highlighted with arrows).

The subject of a further assay is A2780ADR cells. Nature of the assay: A2780ADR subcutaneous tumors in mice. The format is in vivo. The protocol:
(§1) A2780ADR MDR cancer cell line and HeyT30 MDR cancer cell line were injected into mice according to protocols described in Example 3. Mice were treated with BisP1.1 bispecific antibody with or without paclitaxel.
Cells: A2780ADR cell line (Sigma, catalogue no 93112520) is an epithelial ovarian carcinoma, derived from parent A2780 cell line (Sigma, catalogue no 93112519), was used in this study.
Mice: 5-6-weeks-old female nude mice (Charles River) were used in this study.
All animal maintenance, handling, surveillance, and animal procedures were performed in accordance with and approval from the APLAC protocol.
A2780ADR subcutaneous tumors: Mice were randomized into six groups of five mice each—(i) Control isotype IgG1 3 mg/kg, (ii) Control isotype IgG1 3 mg/kg and 20 mg/kg of paclitaxel, (iii) KNJYBisP1.1 3 mg/kg, (iv) KNJYBisP1.1 3 mg/kg and 20 mg/kg of paclitaxel, (v) KNJYBisP1.1 N297A 3 mg/kg and (vi) KNJYBisP1.1 N297A 3 mg/kg and 20 mg/kg of paclitaxel. Antibody and paclitaxel were dosed intraperitoneally twice a week for two consecutive weeks.
A2780ADR subcutaneous tumors: Once tumors reached 100-150 mm^3, mice were randomized into ten groups of five mice each—(i) Control isotype IgG1 3 mg/kg, (ii) Control isotype IgG1 3 mg/kg and 20 mg/kg of paclitaxel, (iii) KNJYBisP1.1 3 mg/kg, (iv) KNJYBisP1.1 3 mg/kg and 20 mg/kg of paclitaxel, (v) 15D3 hybridoma monoclonal Ab 3 mg/kg, (vi) 15D3 hybridoma 3 mg/kg and 20 mg/kg of paclitaxel, (vii) KT14/KT14 monoclonal Ab 3 mg/kg, (viii) KT14/KT14 monoclonal Ab 3 mg/kg and 20 mg/kg of paclitaxel, (ix) 15D3 hybridoma+KT14/KT14, 1.5 mg each and (x) 15D3 hybridoma+KT14/KT14, 1.5 mg each and 20 mg/kg of paclitaxel. Antibodies and paclitaxel were dosed intraperitoneally twice a week for two consecutive weeks.

The test system of assay [1] is CTG-2616 patient-derived breast tumors. Description: CTG-2616 patient-derived breast cancer model. The format is in vivo, mice. The following applies: antibody 6 mg/kg and paclitaxel 5 mg/kg. From the text: Cells: CTG-2616 is a ER^+/Her2^+ primary breast cancer, derived from a patient presenting with recurrent ductal adenocarcinoma of the breast.
Mice: 5-6-weeks-old athymic Nude-Foxn1nu female nude mice (Envigo) were used in this study.
Inoculation—Snap-Frozen pieces of patient-derived tumors were thawed, cut into 5×5×5 mm and were subcutaneously injected into anesthetized 5-6-week-old female nude mice under sterile conditions. For tumor implantation procedure, a 1-1.5 cm incision was made on the implantation site and forceps were used to implant the tumor fragment. When sufficient stock animals reached 1000-1500 mm^3, tumors were harvested for re-implantation into pre-study animals. Pre-study animals were implanted unilaterally on the left flank with tumor fragments harvested from stock animals. Each animal was implanted from a specific passage lot and documented. Pre-study tumor volumes were recorded for each experiment beginning seven to ten days after implantation. When tumors reached an average tumor volume of 150-300 mm^3, animals were matched by tumor volume into treatment or control groups to be used for dosing and dosing initiated on Day 0. All surgical procedures were conducted under sterile conditions. […]

The subject of a further assay is HeyT30 cells. Nature of the assay: HeyT30 tumors in mice. Conditions: FIG. 19. Format: in vivo.
Excerpt: The BisP1.1 bispecific antibody was efficacious against two additional multidrug resistant (MDR) cancer cell lines in xenograft studies. The A2780ADR MDR cancer cell line expresses both CD47 and ABCB1. The HeyT30 MDR cancer cell line also expresses both CD47 and ABCB1 but at a lower level compared to A2780ADR cells (FIGS. 16 and 17). Both the A2780ADR and the HeyT30 cell lines are of ovarian origin. PE-conjugated, commercially available anti-MDR1 and anti-CD47 reagent antibodies were used; for MDR1, Biolegend Cat. No. 348606 and, CD47, Biolegend Cat. No. 323108.
as §1

A further assay relates to cynomolgus RBCs. Nature of the assay: Binding to cynomolgus erythrocytes. The following applies: FIG. 22B; in contrast to anti-CD47 5F9.

Regarding “KBisP1.1: bispecific anti-MDR1/anti-CD47 antibody: 15D3 heavy chain, 5F9 (KT14) heavy chain, common MRK16 light chain, human IgG1”, the “sensitivity of N6ADR cells to paclitaxel” value with N6ADR cells was “enhanced”. In the assay on A2780ADR cells (3 mg/kg with paclitaxel 20 mg/kg, FIG. 28), the “chemosensitizing effect compared with monospecific antibodies” value is “stronger compared to either the anti-MDR1 15D3 hybridoma antibody or anti-CD47 KT14 monoclonal antibody”. Moreover, the tumor volume result is “efficacious in reducing A2780ADR MDR cancer cell tumor volume with or without paclitaxel” in the assay with A2780ADR cells (Example 4, with or without paclitaxel, FIG. 18); “efficacious with and without paclitaxel” in the assay with HeyT30 cells (higher concentration of the antibody); “efficacious in reducing HeyT30 MDR cancer cell tumor volume with paclitaxel” in the assay with HeyT30 cells (lower concentration of the antibody). Further, the “chemosensitization of A2780ADR tumors to paclitaxel” value with A2780ADR cells (antibody 3 mg/kg, paclitaxel 20 mg/kg) is reported as “chemosensitizes”. For the same substance, the “tumor growth with paclitaxel” value in assay [1] was “tumor growth inhibition”. Further, the “binding to cynomolgus erythrocytes” value with cynomolgus RBCs was “no significant binding”.
